“Also recorded” adds a separate entry of the source. No end group written: not given here.
What was measured:
P. aeruginosa = assay: Antibacterial activity in vivo, Romaine lettuce infection model; set-up: species or system Pseudomonas aeruginosa; settings: 200 μg/ml peptide injected with bacteria, scored after 2-3 days
Experimental: FIG. 4: Antibacterial activity in vivo. Romaine lettuce leaves were injected with P. aeruginosa (10^8 cells/nil) in the presence or absence of 200 μg/ml of antibacterial peptides. After 2-3 days incubation the injection sites were scored for infection on a scale of 0-100% relative to the no-bacteria (0% infection) and bacteria-only controls (PAO1) (100%). Data are from six independent experiments and are shown as mean±SEM, N=4−12. *) P<0.04, **) P<0.003.
Romaine lettuce heads were purchased from local grocery stores. Outer leaves were removed and undamaged leaves were selected. The leaves were rinsed in 0.1% bleach and incubated in plastic containers on filter paper moistened with 10 mM MgSO4. Overnight cultures of P. aeruginosa were diluted to 10^8 CFU/ml in 10 mM MgSO4 and supplemented with 200 μg/ml of each peptide. Ten μl (10^6 CFU, 2 μg peptide) were injected into the midrib of each leaf using a micro pipetter. Blank controls were incubated with buffer only, and bacterial controls were incubated without peptide. The plastic trays were covered and incubated at 35° C. Leaves were inspected daily for browning around the injection site or along the midrib. Generally rotting or moldy leaves were discarded. Infection was scored on a scale from 0% to 100% relative to blank controls and bacterial controls, respectively.

P. aeruginosa PAO1 [1] = assay: MIC determination, broth dilution assay (growth OD 570 nm, pelleting in wells); format: cell-based, Pseudomonas aeruginosa
Experimental: (§1) FIGS. 5A and 5B: PSP peptides lack bacteriostatic activity. P. aeruginosa PAO1 or A. actinomycetemcomitans JP2 (10^5 cells/ml) were incubated overnight with two-fold serial dilutions of the indicated peptides. The OD was determined at 570 nm. The data for P. aeruginosa (FIG. 5A) are representative of six independent experiments. The data for A. actinomycetemcomitans (FIG. 5B) are representative of three independent experiments. Filled squares, lysozyme; open diamonds, no peptide; open triangles, KL-11; filled triangles, GK-7; open squares, GL-13; filled diamonds, LL-37. […] Lysozyme inhibits growth about 50%. None of the PSP peptides inhibit growth.
FIG. 6A-6C: GL13 causes bacterial cell spreading. Microtiter plates used to determine bacteriostatic activity (FIG. 5) were photographed after overnight incubation with serial dilutions of the indicated peptides. The diameter of the P. aeruginosa pellets in the presence of GL13 was determined and expressed relative to the peptide concentration in each well. A. Graph of the results. B and C are representative depictions of P. aeruginosa and A. actinomycetemcomitans, respectively, spreading in the presence of PSP peptides.
The minimal inhibitory concentration (MIC) of PSP peptides was tested using the broth dilution assay. […] Bacterial growth was quantitated by the optical density (OD) at 570 nm. […]

[2] = tested on: A. actinomycetemcomitans JP2; assay: as above; format: cell-based, Aggregatibacter (Actinobacillus) actinomycetemcomitans
Experimental: as §1
The minimal inhibitory concentration (MIC) of PSP peptides was tested using the broth dilution assay. Briefly, overnight cultures of bacteria were diluted in Mueller-Hinton broth (MHB) (Difco) to 10^5 CFU/ml. Diluted bacteria (100 μl) and two-fold serial dilutions of peptides in 10 mM sodium phosphate, pH 7.4 (20 μl) were mixed in polypropylene microtiter plates and incubated for 24 h at 35° C. for P. aeruginosa or 48 h at 37° C. under reduced oxygen conditions for A. actinomycetemcomitans. Control samples were incubated with bacteria and two-fold serial dilutions of 20 μl 0.01% acetic acid in 10 mM sodium phosphate. Bacterial growth was quantitated by the optical density (OD) at 570 nm. […]

P. aeruginosa PAO1 [3] = assay: Biofilm formation / bacterial adhesion assay, PVC microtiter plates, crystal violet; format: cell-based, Pseudomonas aeruginosa; settings: 50 μg/ml, 6 h, aerobic
Experimental: FIGS. 7A and 7B: PSP-peptides inhibit biofilm formation. P. aeruginosa PAO1 (overnight cultures, diluted 1:100 were incubated with 50 μg/ml of each peptide (LL37, GK7, GL13, KL11) or lysozyme for 6 h under aerobic (FIG. 7A) or reduced oxygen (anaerobic) (FIG. 7B) conditions. The OD 570 (growth) was determined and the attached cells were then quantitated by staining with crystal violet (biofilm). Growth and biofilm values were normalized against the mean of samples without peptides (HOAc) and expressed as mean±SEM. The data in panel A are from three independent experiments, N=22−24. The data in panel B are from two independent experiments, N=16. Lysozyme (Lyz) data are from a single experiment, N=8. *) different from Growth, P<0.002
(§2) Overnight cultures of P. aeruginosa PAO1 were diluted 1:100 in MHB and 100 μl/well were incubated with 5 μl of LL-37, GK-7, GL-13, KL-11 or lysozyme (1 mg/ml) in PVC microtiter plates. The plates were incubated for 6 h at 32° C. under aerobic or reduced oxygen conditions. Bacterial growth was quantitated spectrophotometrically at 570 nm. Twenty-five μl of 1% crystal violet in dH2O was added to each well and incubated 20 min at room temperature. The wells were emptied and washed three times in dH2O and then incubated for 30 min with 200 μl of 95% ethanol. The OD at 570 nm was determined as a measure of biofilm formation. Growth and biofilm values were normalized against the mean of samples incubated with 0.01% acetic acid without peptides.
as §2, with “μl of the bacterial suspension was mixed” for “μl/well were incubated”, “50 μg/ml” for “5 μl”, “lysozyme” for “lysozyme (1 mg/ml)”

[4] = tested on: LPS-binding protein (LBP); assay: Inhibition of LPS binding to LPS-binding protein (ELISA); settings: for Inhibition (Mean ± SEM) of LPS binding to LBP: relative to polymyxin B (100% inhibition), LPS preincubated with peptide
Experimental: Analysis of the PSP sequence indicated three possible regions of biological activity. Initially, three peptides corresponding to the PSP sequence in these regions were designed and used in these studies. The initial step in the inflammatory cascade is the binding of LPS to LPS-binding protein. This binding was inhibited by preincubation of LPS with each of the three peptides. […] The binding of LPS to LPB was analyzed to ELISA. 0% inhibition (100% binding) was determined in the absence of inhibitors while 100% inhibition was determined in the presence of the inhibitor polymyxin B. The inhibition of each peptide is determined relative to the effect of polymyxin B.

sheep red blood cells = assay: Hemagglutination assay; format: cell-based; settings: PBS, absence of serum, 2 h
Experimental: FIG. 22: Hemagglutination of sheep red blood cells. RBCs were washed in PBS and incubated for 2 h in microtiter plates in PBS±5% fetal calf serum. Peptide concentrations were 83 μg/ml. The microtiter plate was imaged. Agglutinated red blood cells form a wide mat of cells, while non-agglutinated cells form a button shaped pellet.
Briefly, unmodified sheep erythrocytes (Cappel, M P Biomedicals, Irvine, Calif.) were washed in PBS and suspended at 1% in PBS. Diluted erythrocytes and 20 μg/ml of each peptide in PBS were mixed in polypropylene microtiter plates (120 μl per well) and incubated for 2 h at 35° C. The plates were imaged on a Kodak Image station.

[5] = tested on: Aggregatibacter (Actinobacillus) actinomycetemcomitans JP2; format: cell-based; settings: 10 or 100 μg/ml
Experimental: The PSP peptides GL13, GK7 and KL11, lysozyme, LL37 or no peptide (BLK) were incubated with P. aeruginosa (FIG. 3A) or A. actinomycetemcomitans (FIG. 3B). P. aeruginosa PAO1 (10^5 cells/ml) were incubated for 2 h at 35° C. with 10 μg/ml (open bars) or 100 μg/ml (shaded bars) of each peptide. A. actinomycetemcomitans JP2 (10^5 cells/nil) were incubated for 4 h at 37° C. under reduced oxygen conditions. Bacterial cultures were diluted and plated on LB agar (Pseudomonas) or BHI agar plates (A.a., low oxygen incubation) and surviving CFUs enumerated. The data are shown as mean±SEM, P. aeruginosa: N=8−22 at 100 μg/ml, N=2−10 at 10 μg/ml. A. actinomycetemcomitans: N=3. *) P<0.0001, **) P<0.004, ***) P<0.02
Overnight cultures of bacteria were pelleted and resuspended in 10 mM sodium phosphate, pH 7.4 (10^5 CFU/ml). Diluted bacteria (100 μl) were incubated with 10 or 100 μg/ml of each peptide in 10 mM sodium phosphate, pH 7.4. P aeruginosa PAO1 were incubated for 2 h at 35° C. while A. actinomycetemcomitans JP2 were incubated for 4 h at 37° C. under reduced oxygen conditions. […]
As a second antibacterial assay, bactericidal activity was determined by incubating the peptides (10 or 100 μg/ml) with P. aeruginosa, A. actinomycetemcomitans or S. gordonii in 10 mM phosphate buffer. […]

[6] = Affinity binding of PSP to LPS-Sepharose / immobilized LPS
Source text: PLUNC binds LPS, as expected from its structural similarity to LPS-Binding Protein (LBP). To determine if PSP also binds LPS, the protein was expressed in GH4C1 cells and the secretion medium was used for affinity chromatography on LPS-Sepharose. After binding, the affinity matrix was washed and then eluted with PBS+0.2 g/1 EDTA. […] The results of this experiment establish that PSP is an LPS-binding protein and provides a method for purification of PSP.
Secretion medium from GH4C1 cells was loaded on LPS-Sepharose and the unbound fraction collected (this sample was divided on two lanes for PSP-WT). The column was washed and then eluted with PBS+EDTA. The eluted beads were boiled in SDS-sample buffer to release any remaining proteins.

Molecule: lysozyme: Lysozyme (egg white) from Fisher Scientific, established antimicrobial protein [reference compound]
- infection of lettuce leaves (P. aeruginosa): significantly reduced the infection
- reduction of growth of P. aeruginosa (P. aeruginosa PAO1 [1]; broth dilution assay): about 50%
- MIC (P. aeruginosa PAO1 [1]; two-fold serial dilutions starting at 84 μg/ml): did not exhibit a defined MIC
- growth inhibition of A. actinomycetemcomitans [2]: did not inhibit growth of A. actinomycetemcomitans
- bacterial growth in biofilm/adhesion assay (P. aeruginosa PAO1 [3]): affected neither growth nor biofilm formation; also recorded: affected neither growth nor adhesion
- biofilm formation / adhesion (P. aeruginosa PAO1 [3]): affected neither growth nor biofilm formation; also recorded: affected neither growth nor adhesion

Molecule: KAQEAEKLLNN [KN11]
- Inhibition (Mean ± SEM) of LPS binding to LBP [4]: 36% ± 13

Molecule: GQIINLKASLDLL [GL13-OH, GQIINLKASLDLL]
- hemagglutination (words) (sheep red blood cells): caused hemagglutination

Molecule: KLLNNVISK [KK9]
- Inhibition (Mean ± SEM) of LPS binding to LBP [4]: 34% ± 12

Molecule: Substance P: antibacterial cationic peptide substance P
- effect on LPS binding to LBP [4]: had no effect on LPS binding to LBP
- Inhibition (Mean ± SEM) of LPS binding to LBP [4]: −18% ± 19

Molecule: GQIINLKASLNLL-NH2 [GL13-D/N-NH2, GQIINLKASLNLL-(CONH2)]
- hemagglutination (words) (sheep red blood cells): caused hemagglutination

Molecule: CC[C@H](C)[C@H](NC(=O)[C@H](CCCCN)NC(=O)[C@H](CCC(=O)O)NC(=O)[C@H](CCCCN)NC(=O)[C@H](CO)NC(=O)[C@H](CCCCN)NC(=O)[C@H](CCCNC(=N)N)NC(=O)[C@H](Cc1ccccc1)NC(=O)[C@H](Cc1ccccc1)NC(=O)[C@H](CC(=O)O)NC(=O)CNC(=O)[C@H](CC(C)C)NC(=O)[C@@H](N)CC(C)C)C(=O)NCC(=O)N[C@@H](CCCCN)C(=O)N[C@@H](CCC(=O)O)C(=O)N[C@@H](Cc1ccccc1)C(=O)N[C@@H](CCCCN)C(=O)N[C@@H](CCCNC(=N)N)C(=O)N[C@H](C(=O)N[C@H](C(=O)N[C@@H](CCC(N)=O)C(=O)N[C@@H](CCCNC(=N)N)C(=O)N[C@H](C(=O)N[C@@H](CCCCN)C(=O)N[C@@H](CC(=O)O)C(=O)N[C@@H](Cc1ccccc1)C(=O)N[C@@H](CC(C)C)C(=O)N[C@@H](CCCNC(=N)N)C(=O)N[C@@H](CC(N)=O)C(=O)N[C@@H](CC(C)C)C(=O)N[C@H](C(=O)N1CCC[C@H]1C(=O)N[C@@H](CCCNC(=N)N)C(=O)N[C@H](C(=O)N[C@@H](CCC(=O)O)C(=O)N[C@@H](CO)C(=O)O)[C@@H](C)O)C(C)C)[C@@H](C)CC)C(C)C)[C@@H](C)CC [LL37, reference compound]
- killing of A. actinomycetemcomitans [5]: 100%
- hemagglutination (words) (sheep red blood cells): did not cause hemagglutination

B1: PSP: human Parotid Secretory Protein (SPLUNC2, C20ORF70), SEQ ID NO:6 (protein, listed as Homo sapiens)
chain: MLQLWKLVLLCGVLTGTSESLLDNLGNDLSNVVDKLEPVLHEGLETVDNTLKGILEKLKVDLGVLQKSSAWQLAKQKAQEAEKLLNNVISKLLPTNTDIFGLKISNSLILDVKAEPIDDGKGLNLSFPVTANVTVAGPIIGQIINLKASLDLLTAVTIETDPQTHQPVAVLGECASDPTSISLSLLDKHSQIINKFVNSVINTLKSTVSSLLQKEICPLIRIFIHSLDVNVIQQVVDNPQHKTQLQTLI
- binding of PSP to LPS [6]: quantitatively retained by the LPS affinity matrix; also recorded: bound to immobilized P. aeruginosa LPS

Source: patent US9914750B2, “Synthetic peptides and peptide mimetics” (University of Louisville Research Foundation, priority 2007, dated 2018)
